Broadly, the DC50 is the midpoint of the concentration-degradation curve.

Where a name gives a salt, the structure may show the parent alone.

One assay concerns the target T1, catalytic domain of human PARP14 (residues 1611 to 1801) with NanoLuc tag (Homo sapiens, UniProt Q460N5).
T1 construct: expressed in transfected cells; host or cells: HEK-293T cells (ATCC), pcDNA3.1(-) vector
T1 sequence (Q460N5 1611-1801): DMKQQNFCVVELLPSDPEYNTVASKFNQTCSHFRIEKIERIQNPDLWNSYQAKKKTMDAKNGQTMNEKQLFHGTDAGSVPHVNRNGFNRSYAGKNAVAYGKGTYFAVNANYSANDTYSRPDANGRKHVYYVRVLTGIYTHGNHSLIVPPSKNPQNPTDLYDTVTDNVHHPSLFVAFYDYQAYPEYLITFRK
In words: NanoLuc assay for the degradation of PARP14 (NanoLuc-tagged PARP14 overexpressed in HEK-293T cells, 2 hours). The format is cell-based. Conditions: Assay A (Example A): NanoLuc-tagged PARP14 degradation in HEK-293T cells. As for the experimental part: The insert also contained a NanoLuc tag on the N terminus of the PARP14 protein.
Degradation of PARP14 protein was assessed using measurement of the NanoLuc tag as proxy for the PARP14 protein. […] Plasmid DNA was diluted in empty vector DNA then added to 1.163 mL of phenol red free OptiMEM (Thermo Fisher). Plasmid DNA concentrations used in each assay described in Table 1. The plasmid DNA was mixed with 78.5 μL of Fugene HD (Promega) and allowed to incubate 5 minutes.
The transfection was incubated for 24 hrs at 37 degrees in an incubator supplemented with 5% CO2. The cells were then trypsinized and brought up in phenol red free OptiMEM media. […] 40 nL of a dose response curve diluted in DMSO of each test compound was added to the cell plate using a Mosquito (TTP Labtech) and the plate was incubated at 37° C. for 2 hours. Assay plate was brought to room temperature then 20 μL per well of NanoGlo (Promega) was added to the plate. Luminescence was measured on an Envision (Perkin Elmer).
The average DMSO was calculated from 32 wells containing 0.1% DMSO only in columns 12 and 24 of the assay plate. The % of DMSO values were calculated as described below: […]
The % of DMSO values were plotted as a function of compound concentration and the following 4-parameter fit was applied to derive the DC50 values:
where top, bottom, and Hill Coefficient are allowed to float. Y is the % of DMSO and X is the compound concentration
DC50 data for the Example compounds is provided below in Table 2 (“+” is <0.1 μM; “++” is ≥0.1 μM and <1 μM; and “+++” is ≥1 μM).
For `O=C1CCC(Nc2ccc(N3CCN(CCN4CCC(COc5cc(F)c6c(=O)[nH]c(CSC7CCOCC7)nc6c5)CC4)CC3)cc2)C(=O)N1` (stereo not drawn) [Example 48, 3-((4-(4-(2-(4-(((5-fluoro-4-oxo-2-(((tetrahydro-2H-pyran-4-yl)thio)methyl)-3,4-dihydroquinazolin-7-yl)oxy)methyl)piperidin-1-yl)ethyl)piperazin-1-yl)phenyl)amino)piperidine-2,6-dione], the DC50 was < 100 nM.

Staying with this assay, now noted: Assay A (Example A): NanoLuc-tagged PARP14 degradation in HEK-293T cells, read-out: DC50.
Turning to `Cn1nc(N2CCC(=O)NC2=O)c2ccc(C3CCN(CCN4CCC(COc5cc(F)c6c(=O)[nH]c(CSC7CCOCC7)nc6c5)CC4)CC3)cc21` [Example 74, 1-(6-(1-(2-(4-(((5-fluoro-4-oxo-2-(((tetrahydro-2H-pyran-4-yl)thio)methyl)-3,4-dihydroquinazolin-7-yl)oxy)methyl)piperidin-1-yl)ethyl)piperidin-4-yl)-1-methyl-1H-indazol-3-yl)dihydropyrimidine-2,4(1H,3H)-dione], the DC50 is < 100 nM.
Regarding `O=C1CCC(N2C(=O)c3ccc(N4CCN(CC5CCN(C(=O)CN6CCC(COc7cc(F)c8c(=O)[nH]c(CSC9CCOCC9)nc8c7)CC6)CC5)CC4)cc3C2=O)C(=O)N1` (stereo not drawn) [Example 15, 2-(2,6-dioxopiperidin-3-yl)-5-(4-((1-(2-(4-(((5-fluoro-4-oxo-2-(((tetrahydro-2H-pyran-4-yl)thio)methyl)-3,4-dihydroquinazolin-7-yl)oxy)methyl)piperidin-1-yl)acetyl)piperidin-4-yl)methyl)piperazin-1-yl)isoindoline-1,3-dione formate], the 50% degradation concentration (DC50) is < 100 nM.
The same measure, in the same setting: to `O=C(CN1CCC(COc2cc(F)c3c(=O)[nH]c(CSC4CCOCC4)nc3c2)CC1)NCCCCCCCCNc1cccc2c1C(=O)N(C1CCC(=O)NC1=O)C2=O` (stereo not drawn) [Example 3, N-(8-((2-(2,6-dioxopiperidin-3-yl)-1,3-dioxoisoindolin-4-yl)amino)octyl)-2-(4-(((5-fluoro-4-oxo-2-(((tetrahydro-2H-pyran-4-yl)thio)methyl)-3,4-dihydroquinazolin-7-yl)oxy)methyl)piperidin-1-yl)acetamide] belongs < 100 nM; to `O=C1CCC(Nc2ccc(O[C@@H]3C[C@@H]4CN(CCN5CCC(COc6cc(F)c7c(=O)[nH]c(CSC8CCOCC8)nc7c6)CC5)C[C@@H]4C3)cc2)C(=O)N1` (stereo partly drawn) [Example 76, 3-((4-(((3aR,51,6aS)-2-(2-(4-(((5-fluoro-4-oxo-2-(((tetrahydro-2H-pyran-4-yl)thio)methyl)-3,4-dihydroquinazolin-7-yl)oxy)methyl)piperidin-1-yl)ethyl)octahydrocyclopenta[c]pyrrol-5-yl)oxy)phenyl)amino)piperidine-2,6-dione], < 100 nM; to `Cn1c(=O)n(C2CCC(=O)NC2=O)c2cccc(C#CCN3CCC(COc4cc(F)c5c(=O)[nH]c(CSC6CCOCC6)nc5c4)CC3)c21` (stereo not drawn) [Example 31, 3-(4-(3-(4-(((5-fluoro-4-oxo-2-(((tetrahydro-2H-pyran-4-yl)thio)methyl)-3,4-dihydroquinazolin-7-yl)oxy)methyl)piperidin-1-yl)prop-1-yn-1-yl)-3-methyl-2-oxo-2,3-dihydro-1H-benzo[d]imidazol-1-yl)piperidine-2,6-dione], < 100 nM.
The same measure, in the same setting: to `CN(c1ccc(NC2CCC(=O)NC2=O)cc1)C1CCN(CCN2CCC(COc3cc(F)c4c(=O)[nH]c(CSC5CCOCC5)nc4c3)CC2)CC1` (stereo not drawn) [Example 123] belongs < 100 nM; to `O=C1CCN(c2ccc(C3CCN(CCN4CCC(COc5cc(F)c6c(=O)[nH]c(CSC7CCOCC7)nc6c5)CC4)CC3)cc2)C(=O)N1` [Example 77, 1-(4-(1-(2-(4-(((5-fluoro-4-oxo-2-(((tetrahydro-2H-pyran-4-yl)thio)methyl)-3,4-dihydroquinazolin-7-yl)oxy)methyl)piperidin-1-yl)ethyl)piperidin-4-yl)phenyl)dihydropyrimidine-2,4(1H,3H)-dione], < 100 nM; to `O=C1CCC(Nc2ccc(C(=O)N3CCC(COc4cc(F)c5c(=O)[nH]c(CSC6CCOCC6)nc5c4)CC3)cc2)C(=O)N1` (stereo not drawn) [Example 16, 3-((4-(4-(((5-fluoro-4-oxo-2-(((tetrahydro-2H-pyran-4-yl)thio)methyl)-3,4-dihydroquinazolin-7-yl)oxy)methyl)piperidine-1-carbonyl)phenyl)amino)piperidine-2,6-dione], < 100 nM.
For the molecule `O=C1CCC(N2Cc3cc(N4CCN(CCN5CCC(COc6cc(F)c7c(=O)[nH]c(CSC8CCOCC8)nc7c6)CC5)CC4)ccc3C2=O)C(=O)N1` (stereo not drawn) [Example 59, 3-(5-(4-(2-(4-(((5-fluoro-4-oxo-2-(((tetrahydro-2H-pyran-4-yl)thio)methyl)-3,4-dihydroquinazolin-7-yl)oxy)methyl)piperidin-1-yl)ethyl)piperazin-1-yl)-1-oxoisoindolin-2-yl)piperidine-2,6-dione], the DC50 was < 100 nM.
Same read-out and setting: to `O=C1CCC(N2C(=O)c3cccc(C#CCN4CCC(COc5cc(F)c6c(=O)[nH]c(CSC7CCOCC7)nc6c5)CC4)c3C2=O)C(=O)N1` (stereo not drawn) [Example 28, 2-(2,6-dioxopiperidin-3-yl)-4-(3-(4-(((5-fluoro-4-oxo-2-(((tetrahydro-2H-pyran-4-yl)thio)methyl)-3,4-dihydroquinazolin-7-yl)oxy)methyl)piperidin-1-yl)prop-1-yn-1-yl)isoindoline-1,3-dione] belongs < 100 nM; to `O=C1CCC(N2C(=O)c3cccc(N4CC(N5CCC(COc6cc(F)c7c(=O)[nH]c(CSC8CCOCC8)nc7c6)CC5)C4)c3C2=O)C(=O)N1` (stereo not drawn) [Example 40, 2-(2,6-dioxopiperidin-3-yl)-4-(3-(4-(((5-fluoro-4-oxo-2-(((tetrahydro-2H-pyran-4-yl)thio)methyl)-3,4-dihydroquinazolin-7-yl)oxy)methyl)piperidin-1-yl)azetidin-1-yl)isoindoline-1,3-dione], < 100 nM.
Take `O=C1CCN(c2ccc(C#CCN3CCC(COc4cc(F)c5c(=O)[nH]c(CSC6CCOCC6)nc5c4)CC3)cc2)C(=O)N1` [Example 32, 1-(4-(3-(4-(((5-fluoro-4-oxo-2-(((tetrahydro-2H-pyran-4-yl)thio)methyl)-3,4-dihydroquinazolin-7-yl)oxy)methyl)piperidin-1-yl)prop-1-yn-1-yl)phenyl)dihydropyrimidine-2,4(1H,3H)-dione]: the DC50 was < 100 nM.
Still for that read-out and setting: to `O=C1CCC(Nc2ccc(OCCN3CCC(COc4cc(F)c5c(=O)[nH]c(CSC6CCOCC6)nc5c4)CC3)cc2)C(=O)N1` (stereo not drawn) [Example 58, 3-((4-(2-(4-(((5-fluoro-4-oxo-2-(((tetrahydro-2H-pyran-4-yl)thio)methyl)-3,4-dihydroquinazolin-7-yl)oxy)methyl)piperidin-1-yl)ethoxy)phenyl)amino)piperidine-2,6-dione] belongs < 100 nM.
The same measure, in the same setting: to `O=C(CN1CCC(COc2cc(F)c3c(=O)[nH]c(CSC4CCOCC4)nc3c2)CC1)NCCOCCCNc1cccc2c1C(=O)N(C1CCC(=O)NC1=O)C2=O` (stereo not drawn) [Example 13, N-(2-(3-((2-(2,6-dioxopiperidin-3-yl)-1,3-dioxoisoindolin-4-yl)amino)propoxy)ethyl)-2-(4-(((5-fluoro-4-oxo-2-(((tetrahydro-2H-pyran-4-yl)thio)methyl)-3,4-dihydroquinazolin-7-yl)oxy)methyl)piperidin-1-yl)acetamide] belongs < 100 nM.

The values above are taken from US20240101540A1, “TARGETED PROTEIN DEGRADATION OF PARP14 FOR USE IN THERAPY” (Ribon Therapeutics, Inc., priority 2022, published 2024).
